Test results from article PMC10292217, “Gene-nutrient interactions that impact magnesium homeostasis increase risk for neural tube defects in mice exposed to dolutegravir” (Frontiers in Cell and Developmental Biology, 2023).
Marks after values point to notes of the source that are not given here.

Experiments:
[1] = test system: P19C5 mouse embryonal carcinoma cell; design: method as in Kirkwood-Johnson et al., 2021; details: exposure within the first 1-2 days; ref Kirkwood-Johnson et al., 2021; cited from earlier work
LM/Bc mice = assay: DTG-NTD susceptibility, embryo phenotyping on GD 9.5, LM/Bc dams; type: in vivo, mouse
Description: (§1) Breeding colonies and experimental mice were housed in Thoren micro-isolator cages with autoclaved corncob bedding and maintained on a 12-h light-dark cycle in climate-controlled AAALAC-accredited animal facilities at Creighton University. Mice were given ad libitum access to autoclaved water and pelleted irradiated rodent chow. For timed matings, nulliparous female mice were placed with a male overnight (1 male:2-3 females). The presence of a vaginal plug the next morning was considered GD 0.5. Plugged females were weighed, placed into a separate cage, and randomly assigned to a treatment group. All animal procedures were performed in accordance with the Public Health Service (PHS) policy on Humane Care and Use of Laboratory Animals and approved by the Creighton University Institutional Animal Care and Use Committee (IACUC).
(§2) Dolutegravir (CAS 1051375-16-6, GSK1349572) was purchased from MedKoo Biosciences (Morrisville, NC). Pregnant mice were dosed with vehicle (dimethylsulfoxide: Solutol®: 50 mM N-methylglucamine in 3% mannitol [1:1:8, v:w:v]) ([Moss et al., 2015]) or DTG (500 mg/kg or 750 mg/kg) by daily oral gavage beginning on GD 0.5 and continuing until the day of sacrifice (GD 9.5). All treatments were administered in a volume of 0.1 mL/10 g bodyweight (bwt).
(§3) The SWV and LM/Bc breeding colonies have been maintained on Envigo Rodent Chow #8904 (a soy protein-based irradiated diet) for >20 years. C3H/HeJ and C57BL/6J mice (6–10 weeks old) were immediately placed on Envigo #8904 upon arrival at Creighton University and were maintained on this diet for a minimum of 1 month prior to analysis of basal plasma and urine cations. The National Research Council (NRC) estimate for the minimum Mg^2+ requirement in adult mice is […] of diet (0.05%). Magnesium in standard rodent diets ranges between […]; the Envigo #8904 soy diet contains .3% Mg^2+ by weight ([…] the NRC requirement) and was therefore considered a ‘high’ Mg^2+ diet. Sources of Mg^2+ in the soy diet include magnesium oxide (∼20%) and Mg^2+ found naturally in grain ingredients (∼80%); it was therefore not possible to remove Mg^2+ to create a soy-based version that was Mg^2+ deficient. To test the hypothesis that low maternal plasma Mg^2+ prior to conception would increase susceptibility to DTG-induced NTDs, it was necessary to switch to casein-based purified ingredient diets with defined levels of Mg^2+ added back. The following casein-based purified ingredient diets were selected as experimental diets: TD.120,574 high Mg^2+ diet (.3% Mg^2+ oxide added to match the .3% high Mg^2+ soy-based diet); TD.98341 control Mg^2+ diet with 0.05% Mg oxide added back to match the NRC requirement; and TD.93106 Mg^2+-deficient diet (<.003%, no Mg^2+ added back). The purified casein diets met or exceeded the NRC requirements for all other minerals and vitamins, including folic acid (Supplementary Table S1: Diet Comparison). Thus, the 4 experimental diets were as follows: 1) high Mg^2+ (.3%) soy diet; 2) high Mg^2+ ([…]) casein diet; 3) control Mg^2+ (.05%) casein diet; and 4) deficient Mg^2+ (<.003%) casein diet. […] Our initial DTG teratology studies were performed in mice on the high Mg^2+ soy diet. However, our objective in the second set of experiments was to reduce pre-conception plasma Mg^2+ levels prior to DTG exposure. To accomplish this objective, weaned female mice were placed on either the high Mg^2+ casein diet or one of the 2 casein-based experimental diets with reduced Mg^2+ (control or deficient) for a minimum of 2 weeks. After this minimum period of acclimation to the experimental casein-based diets, blood and urine samples were collected for Inductively Coupled Plasma Mass Spectrometry (ICP-MS) determination of Mg^2+ (and other cations).
(§4) Pregnant dams were anesthetized with isoflurane and sacrificed by cervical dislocation on GD 9.5. […]

SWV mice = assay: DTG-NTD susceptibility, embryo phenotyping on GD 9.5, SWV dams; type: in vivo, mouse
Description: as §1, §2, §3, §4

C3H/HeJ mice = test system: C3H/HeJ mice; design: method as in Bade et al., 2021; details: 50 mg/kg/d DTG oral gavage from GD 0.5; 1 NTD affected pup in 17 litters; ref Bade et al., 2021; cited from earlier work
[2] = control Mg2+ (0.05%) casein diet, DTG500
[3] = control Mg2+ (0.05%) casein diet, DTG750
[4] = high Mg2+ (0.3%) casein diet, DTG750
[5] = high Mg2+ (0.3%) soy diet, DTG 750 mg/kg/d oral GD 0.5-GD 9.5, average % (SD)
[6] = high Mg2+ (0.3%) soy diet, DTG 750 mg/kg/d oral GD 0.5-GD 9.5, mean (SD)
[7] = high Mg2+ (0.3%) soy diet, DTG 750 mg/kg/d oral GD 0.5-GD 9.5, mean (SD) per litter
[8] = high Mg2+ soy diet, DTG500, n = 7 litters
[9] = Mg2+-deficient (<0.003%) casein diet, DTG750

C[C@@H]1CCO[C@H]2Cn3cc(C(=O)NCc4ccc(F)cc4F)c(=O)c(O)c3C(=O)N12 [DTG, Dolutegravir]
growth and axial elongation [1]: concentration-dependent inhibition of growth and axial elongation
NTD-affected litters (LM/Bc mice; [2]): 62%
NTD-affected litters / litters examined (LM/Bc mice; [2]): 8/13
exencephalic embryos per litter (LM/Bc mice; [2]): 1 to 5
total NTDs (LM/Bc mice; control Mg2+ (0.05%) casein diet, DTG500, of 116 implants): 19
NTD-affected litters (LM/Bc mice; [3]): 85%
NTD-affected litters / litters examined (LM/Bc mice; [3]): 11/13
exencephalic embryos per litter (LM/Bc mice; [3]): 1 to 6
total NTDs (LM/Bc mice; control Mg2+ (0.05%) casein diet, DTG750, of 105 implants): 33
NTD-affected litters (LM/Bc mice; [4]): 19%
exencephalic embryos per affected litter (LM/Bc mice; [4]): 1
mean rate NTDs/litter (LM/Bc mice; [4]): 2%
NTD-affected litters / litters examined (LM/Bc mice; high Mg2+ (0.3%) casein diet, DTG750, 90 implants total): 3/16
Dev delay/implants, index value (LM/Bc mice; [5]): 8.1% (17.76)
NTDs/embryos, index value (LM/Bc mice; [5]): 20.9% (23.65)^**
NTDs/implants, index value (LM/Bc mice; [5]): 17.7% (20.63)^**
Resorptions/implants, index value (LM/Bc mice; [5]): 11.5% (15.75)
Implants per litter (LM/Bc mice; [6]): 8.74 (2.47)
Resorptions per litter (LM/Bc mice; [6]): 0.95 (1.27)
Dev. delayed (LM/Bc mice; [7]): 0.58 (0.96)
NTDs (LM/Bc mice; [7]): 1.47 (1.74)^**
Total viable embryos (LM/Bc mice; [7]): 7.79 (2.76)
NTDs observed (LM/Bc mice; high Mg2+ soy diet, DTG 500 mg/kg/d (DTG500), n = 7 litters): No NTDs
developmental delays (LM/Bc mice; [8]): no developmental delays
implants (total) (LM/Bc mice; [8]): 71
resorptions (total) (LM/Bc mice; [8]): 9
viable embryos developmentally normal (total) (LM/Bc mice; [8]): 62
NTD-affected litters / litters examined (LM/Bc mice; high Mg2+ soy diet, DTG750): 12/19
NTDs/affected litter (LM/Bc mice; high Mg2+ soy diet, DTG750): 1–6
total pups with exencephaly (LM/Bc mice; high Mg2+ soy diet, DTG750, out of 166 total implants): 28
NTD-affected litters (SWV mice; [9]): 75%
NTD-affected litters / litters examined (SWV mice; [9]): 6/8
NTDs per affected litter (SWV mice; [9]): 1-4
total NTDs (SWV mice; [9]): 11
Affected litters % (SWV mice; high Mg2+ (0.3%) soy diet, DTG 750 mg/kg/d oral GD 0.5-GD 9.5): 7.7%
Dev delay/implants, index value (SWV mice; [5]): 2.0% (3.19)
NTDs/embryos, index value (SWV mice; [5]): 1.8% (6.40)
NTDs/implants, index value (SWV mice; [5]): 1.6% (5.94)
Resorptions/implants, index value (SWV mice; [5]): 5.0% (7.62)
Implants per litter (SWV mice; [6]): 13.15 (2.12)^**
Resorptions per litter (SWV mice; [6]): 0.62 (0.87)
Dev. delayed (SWV mice; [7]): 0.31 (0.48)
NTDs (SWV mice; [7]): 0.23 (0.83)
Total viable embryos (SWV mice; [7]): 12.54 (2.37)^**
NTD-affected litters / litters examined (SWV mice; high Mg2+ soy diet, DTG750): 1/13
total pups with exencephaly (SWV mice; high Mg2+ soy diet, DTG750): 3
NTD-affected litters (C3H/HeJ mice): 5.8%
